Reference: patent US8703822B2, “Method for removing undifferentiated and dedifferentiated stem cell” (Nanyang Polytechnic, priority 2009, dated 2014)
Converted amounts (≈) assume the structure as drawn. Like-named read-outs stand apart in the source and are kept apart here.

Key:
hESCs = test: light microscopy of hESC colonies cultured on murine feeder cells, hESC-selective killing; type: cell-based, human; conditions: for selective killing of hESCs (FIG. 4): 24 hr incubation; for lowest concentration at which cytotoxic effects were seen: 2.5 μg/mL = 8 μM; for killing of hESCs (light microscopic images, FIG. 2): JC010 12 and 24 hours, JC011 24 hours; for cytotoxic effect on undifferentiated hESCs (summary) / specificity (hESCs versus feeder cells), compared among JC010, JC011 and JC017: summary of the experimental data
Protocol: (§1) Using the above cell viability assays, various cell types including hESCs, differentiated hESCs, human primary astrocytes and murine feeder cells (mouse embryonic fibroblasts (MEFs)) were treated with one of the analogues synthesized in Examples 1 to 3. The cells were then visualized with 5×, 10×, 20× and 40× objectives using dark field, phase optics and fluorescence microscopy with an Olympus IX51 inverted microscope or Leica MZ8 stereomicroscope.
(§2) In the phase contrast optics images (FIGS. 1A and 1B), the hESCs are seen as dark colonies surrounded by the murine feeder cells (mouse embryonic fibroblasts (MEFs)). In the dark field images (FIGS. 1C and 1D), the hESCs are seen as bright colonies surrounded by the murine feeder cells (mouse embryonic fibroblasts (MEFs)).

[1] = tested on: normal human primary astrocytes; test: resazurin cell viability assay on normal human primary astrocytes (FIG. 8B); type: cell-based
hESC = test: Trypan Blue cell viability assay on hESC; type: cell-based, human; conditions: 40 μM; 24 hours (JC011 also 48 hr), compared to untreated hESC
Protocol: The images on the left (A and B) show untreated hESC while the images on the right (C and D) show hESC treated with 40 μM of JC010 for 24 hours. The arrows indicate trypan blue positive dead cells.
The Trypan Blue cell viability assay was conducted by first diluting 10 μL of a cell suspension with 10 μL of 0.4% w/v Trypan Blue solution. The cell suspension and Trypan Blue solution were mixed using a pipette, after which the mixture was incubated at room temperature for 10 minutes. 20 μL of the mixture was then loaded into a charged hemocytometer for visualization under 10× and 20× magnification phase optics microscopy. Cells which stain blue are dead cells.

[2] = tested on: undifferentiated hESCs (H1 cells); test: resazurin cell viability assay on undifferentiated H1 hESCs (FIG. 7A); type: cell-based, human; conditions: 40 μM, 24 hr and 48 hr; versus JC005, capsaicin (CAP) and DMSO
Protocol: (§3) The hESCs used are undifferentiated H1 cells, while the murine feeder cells (mouse embryonic fibroblasts (MEFs)) used are J28 C57/BL6J cells. The columns represent the means of 4 experiments while the bars represent relative fluorescence ±s.d. The control was untreated hESCs and untreated murine feeder cells (mouse embryonic fibroblasts (MEFs)) with a final DMSO concentration of 1% v/v while the final sample concentration was 40 μM. * denotes P<0.01, Student's T-test, 2-tail.
(§4) The resazurin cell viability assay was conducted on hESC, differentiated hESCs, osteoblasts, murine feeder cells (mouse embryonic fibroblasts (MEFs)), IPSCs derived from foreskin (IPS-DF19-9 and IPS-foreskin) and CSCs (colon CSCs and breast CSCs). The assay is based on the use of an indicator dye resazurin to measure the metabolic capacity of a cell. […]
(§5) In wells A12-H12, 200 μl/well DMSO were added to provide the Blank reading.
(§6) The percentage of the resazurin activity was calculated based on the following equation:
(§7) The percentage of cell death was calculated based on the following equation: % cell death=100−% activity (Eq. 2) […]
(§8) […] The plates were further incubated at 37° C. for 2 h, after which the plate was read at an excitation wavelength of 535 nm and an emission wavelength of 590 nm with a Tecan Infinite 200 microplate reader.

[3] = tested on: murine feeder cells (mouse embryonic fibroblasts (MEFs)), J28 C57/BL6J cells; test: resazurin cell viability assay on murine feeder cells (FIG. 7B); type: cell-based; conditions: 40 μM, 24 hr and 48 hr; versus JC005, capsaicin (CAP) and DMSO
Protocol: as §3, §4, §5, §6, §7, §8

[4] = tested on: differentiated hESCs (H1); type: cell-based
Protocol: (§9) The resazurin cell viability assay was conducted on hESC, differentiated hESCs, osteoblasts, murine feeder cells (mouse embryonic fibroblasts (MEFs)), IPSCs derived from foreskin (IPS-DF19-9 and IPS-foreskin) and CSCs (colon CSCs and breast CSCs). The assay is based on the use of an indicator dye resazurin to measure the metabolic capacity of a cell. A viable cell would retain the ability to reduce resazurin to resorufin, which is a highly fluorescent compound.
as §6
(§10) The percentage of cell death was calculated based on the following equation: % cell death=100−% activity (Eq. 2)
(§11) The cells were plated in a 96-well multi-well plate 5 days before the assay. 200 μL of medium containing 10^5/mL cells (i.e. 2×10^4 cells) were used for each well.
The cells were then treated with 12.5 μg/mL of the capsaicin analogues. The final concentration of DMSO used as control was 1% v/v.
[…] The media was then removed from the wells and 100 μL of PBS buffer was added to each well. 20 μL of resazurin was added to each well to give a final resazurin concentration of 8 μg/mL. The plates were further incubated at 37° C. for 2 h, after which the plate was read at an excitation wavelength of 535 nm and an emission wavelength of 590 nm with a Tecan Infinite 200 microplate reader.
bGFG is a critical growth factor that maintains the hESCs in the undifferentiated state. Removal or withdrawal of bGFG induces hESCs to undergo differentiation.

undifferentiated hESCs = test: dose response curves on undifferentiated hESCs (FIG. 11A); type: cell-based, human; conditions: from dose response curve FIG. 11A
Source text: In other words, JC010 and JC011 were very cytotoxic against undifferentiated hESCs. It can also be seen from the dose response curve in FIG. 11B, that both analogues were not cytotoxic to differentiated cells.

[5] = tested on: breast CSC cell line (Celprogen Cat#36102-29P-T25); test: resazurin cell viability assay on breast CSC cell line; type: cell-based; conditions: 12.5 μg/mL, FIG. 14
Wicell H1 cells = test: dichlorofluorescin diacetate (DCFH-DA) analysis of reactive oxygen species; type: cell-based, human; conditions: 12.5 μg/mL, 3 hr
Protocol: Live adherent cells were washed with PBS solution. DCHF-DA solution was then added to the cells in PBS solution at a final working concentration of 10 μM. The mixture was then incubated at room temperature for 5 minutes, and visualized under a fluorescence microscope with FITC filters. Bright green fluorescent cells are indicative of cells with a high content of reactive oxygen species (ROS).

IPS-DF19-9 cells = test: resazurin cell viability assay on IPS-DF19-9 cells; type: cell-based; conditions: 12 μg/mL, 16-hour exposure
Protocol: as §9, §6, §10, §11
(§12) The cells were then incubated at 37° C. for about 16 h overnight in 5% CO2. The media was then removed from the wells and 100 μL of PBS buffer was added to each well. 20 μL of resazurin was added to each well to give a final resazurin concentration of 8 μg/mL. The plates were further incubated at 37° C. for 2 h, after which the plate was read at an excitation wavelength of 535 nm and an emission wavelength of 590 nm with a Tecan Infinite 200 microplate reader. […]

IPS-foreskin cells = test: resazurin cell viability assay on IPS-foreskin cells; type: cell-based; conditions: 12 μg/mL, 16-hour exposure
Protocol: as §9, §6, §10, §11, §12

[6] = tested on: murine feeder cells (mouse embryonic fibroblasts (MEFs)); test: light microscopy of murine feeder cells co-cultured with hESCs; type: cell-based; conditions: summary of the experimental data
Protocol: as §1, §2

[7] = tested on: colon CSC cell line (Celprogen Cat#36112-39P-T25); conditions: 12.5 μg/mL, FIG. 13
CSCs = test: cytotoxic effect on CSCs, summary over colon and breast CSC lines; type: cell-based; conditions: summary of the experimental data
Protocol: Seven analogues having different side chain lengths (JC010, JC011, JC017, JC040, JC048, JC049 and JC050) were tested for their cytotoxic effect on CSCs using the resazurin cell viability assay. Two CSC cell lines were used, a colon CSC cell line (Celprogen Cat#36112-39P-T25) and a breast CSC cell line (Celprogen Cat#36102-29P-T25).

[8] = comparison value, source not given; cited from earlier work

CCCCCCCCC(=O)NCc1ccc(OC)c(O)c1 [JC005]
selective killing of hESCs (FIG. 4) (hESCs; 12.5 μg/mL (40 μM)): No such killing effect
cell death of normal human primary astrocytes ([1]; 40 μM, FIG. 8B): not cytotoxic
cell death of hESCs (BGO1v) (hESC cell line BGO1v; 40 μM, FIG. 8A): not cytotoxic

CCCCCCCCNC(=O)NCc1ccc(O)c(O)c1 [JC010]
selective killing of hESCs (FIG. 4) (hESCs; 2.5 μg/mL (8 μM)): selectively killed
lowest concentration at which cytotoxic effects were seen (hESCs): 2.5 µg/mL
selective killing of hESCs (FIG. 4) (hESCs; 12.5 μg/mL (40 μM)): selectively killed
killing of hESCs (light microscopic images, FIG. 2) (hESCs; 40 μM): selective and rapid killing of hESCs
cytotoxic effect on undifferentiated hESCs (summary) (hESCs): particularly high cytotoxic effect
killing of hESC in Trypan Blue assay (FIGS. 5 and 6) (hESC): wide spread killing of hESC
relative fluorescence of treated undifferentiated hESCs (H1 cells) [2]: significantly lower
relative fluorescence of treated murine feeder cells [3]: not significantly different
cell death of normal human primary astrocytes [1]: low percentages of cell death
cytotoxic effect on differentiated cells (summary) [4]: relatively low
cytotoxicity to differentiated cells (dose response curve) [4]: not cytotoxic
IC50 (undifferentiated hESCs; Homo sapiens): ~2.5 µg/mL (≈ 8.49 µM)
cell death, breast CSC cell line [5]: about 15%
cell death of hESCs (BGO1v) (hESC cell line BGO1v): high percentages of cell death

CCCCCCCCC(=O)NCc1ccc(O)c(O)c1 [JC011]
selective killing of hESCs (FIG. 4) (hESCs; 2.5 μg/mL (8 μM)): selectively killed
lowest concentration at which cytotoxic effects were seen (hESCs): 2.5 µg/mL
selective killing of hESCs (FIG. 4) (hESCs; 12.5 μg/mL (40 μM)): selectively killed
killing of hESCs (light microscopic images, FIG. 2) (hESCs; 40 μM): selective and rapid killing of hESCs
cytotoxic effect on undifferentiated hESCs (summary) (hESCs): particularly high cytotoxic effect
specificity (hESCs versus feeder cells), compared among JC010, JC011 and JC017 (hESCs): highest specificity
killing of hESC in Trypan Blue assay (FIGS. 5 and 6) (hESC): wide spread killing of hESC
relative fluorescence of treated undifferentiated hESCs (H1 cells) [2]: significantly lower
relative fluorescence of treated murine feeder cells [3]: not significantly different
cell death of normal human primary astrocytes [1]: low percentages of cell death
cytotoxic effect on differentiated cells (summary) [4]: relatively low
cytotoxicity to differentiated cells (dose response curve) [4]: not cytotoxic
killing of differentiated hESCs (relative fluorescence versus control) ([4]; 40 μM, 24 hr, bGFG withdrawn, FIG. 9): did not kill differentiated hESCs
ROS content compared to untreated cells (Wicell H1 cells): decreased significantly
IC50 (in words) (undifferentiated hESCs): at the nanogram level
IPS-DF19-9 cells killed compared to the control (IPS-DF19-9 cells): about 67%
IPS-DF19-9 cells remained alive (IPS-DF19-9 cells): 33%
IPS-foreskin cells killed compared to the control (IPS-foreskin cells): about 62%
IPS-foreskin cells remained alive (IPS-foreskin cells): 38%
cell death, breast CSC cell line [5]: about 15%
cell death of hESCs (BGO1v) (hESC cell line BGO1v): high percentages of cell death

CCCCCCNC(=O)NCc1ccc(O)c(O)c1 [JC017]
killing effect on hESCs (light microscopic images, FIG. 3) (hESCs; 40 μM, 12 hours, compared to FIG. 2): not as selective nor as potent as the effect of the analogues JC010 and JC011
cytotoxic effect on undifferentiated hESCs (summary) (hESCs): particularly high cytotoxic effect
specificity (hESCs versus feeder cells), compared among JC010, JC011 and JC017 (hESCs): lowest specificity
killing of feeder cells (summary) [6]: some feeder cells were also killed
cell death of normal human primary astrocytes [1]: low percentages of cell death
cell death, breast CSC cell line [5]: about 15%
cell death of hESCs (BGO1v) (hESC cell line BGO1v): high percentages of cell death
cell death, colon CSC cell line [7]: 15-33%

CCCCCCNC(=O)Cc1cc(O)ccc1O [JC025]
selective cytotoxic activity towards undifferentiated or dedifferentiated stem cells (hESC cell line BGO1v): did not exhibit any selective cytotoxic activity

CCCCCCCCNC(=O)Cc1cc(O)ccc1O [JC026]
selective cytotoxic activity towards undifferentiated or dedifferentiated stem cells (hESC cell line BGO1v): did not exhibit any selective cytotoxic activity

CCCCCCCCCC(=O)NCc1ccc(O)c(O)c1 [JC040]
cell death, breast CSC cell line [5]: 25-35%
cytotoxic effect on CSCs (summary) (CSCs): high cytotoxic effect
cell death, colon CSC cell line [7]: ~45%

CCCCCCCCCCCC(=O)NCc1ccc(O)c(O)c1 [JC048]
cell death, breast CSC cell line [5]: ~55%
cytotoxic effect on CSCs (summary) (CSCs): high cytotoxic effect
cell death, colon CSC cell line [7]: ~45%

CCCCCCCCCCC(=O)NCc1ccc(O)c(O)c1 [JC049]
cell death, breast CSC cell line [5]: 25-35%
cytotoxic effect on CSCs (summary) (CSCs): high cytotoxic effect
cell death, colon CSC cell line [7]: 15-33%

CCCCCCCCCCCCCC(=O)NCc1ccc(O)c(O)c1 [JC050]
cell death, breast CSC cell line [5]: 25-35%

COc1cc(CNC(=O)CCCC/C=C/C(C)C)ccc1O [capsaicin]
concentration for in vitro cytotoxic effect [8]: 100 µM
